Values joined by “and” are separate entries in the source; they are usually repeats but may differ in a detail not shown here. Equal entries are not always repeated.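 Values below derive from 48-hour exposures of cells grown in 96-well plates, with endpoints linearly interpolated between the two concentrations bracketing the appropriate inhibition level. GI50 is the concentration that inhibits growth by half. TGI marks complete inhibition of growth.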 Bounds are passed on as bounds.

Holding throughout (assay): inhibition of tumour cell growth, NCI panel, 48 h
Experiment [1] deals with HCC-2998 colon.
The subject of experiment [2] is SK-MEL-2 melanoma.
Experiment [3] deals with BT-549 breast.
For experiment [4], the system named is MOLT-4 leukemia.
The subject of experiment [5] is COLO 205 colon.
The subject of experiment [6] is EKVX NSCLC.
The test system of experiment [7] is UO-31 renal.
In experiment [8] the test system is HT29 colon.
In experiment [9] the test system is KM12 colon.
Experiment [10] deals with HOP-92 NSCLC.

In the case of `O=C1/C(=C/c2ccc(Cl)cc2)CCC1CN1CCOCC1` (stereo not given), the TGI in [1] is 23 µM; in experiment [2], 33.8 µM; in experiment [3] it was 26 µM; in experiment [4] it was 4.21 µM; in [5] it was over 25.3 µM; in [6], 30.7 µM. Further, the TGI in [7] was determined as 22.4 µM; in experiment [8], 23 µM; in experiment [9], 10.4 µM; in experiment [10], 16.1 µM.

Take `CC(C)=CC(=O)N[C@@H]1CC2CCC3C(CC[C@@]4(C)C3CC[C@@H]4C(C)N(C)C)[C@@]2(C)C[C@@H]1O` (stereo not given in full): the GI50 is 5.44 µM in [1]; 14.4 µM in [2]; 7.57 µM in [3]; 2500 nM in experiment [4]; 1.79 µM in [5]; 3.12 µM in experiment [6]. The GI50 in experiment [7] was 1.62 µM; in experiment [8], 0.496 µM; in experiment [9], 4.41 µM; in experiment [10] it was 2.37 µM. The TGI was 16.8 µM in experiment [1]; 38.2 µM in [2]; 29.3 µM in experiment [3]; 14 µM in [4]; 3.71 µM in experiment [5]; over 100 µM in [6]. The TGI in experiment [7] worked out at 4.43 µM; in experiment [8], 2.92 µM; in experiment [9] it was 30.1 µM; in [10], 24.2 µM.

Take `CCCCCCCCCCCC1=NC(C)(C)CN1CC(C)O` (stereo not given): the GI50 is 1.69 µM in experiment [1]; 2.41 µM in experiment [2]; 5.93 µM in experiment [3]; 2830 nM in experiment [4]; 1.68 µM in experiment [5]; 11.2 µM in [6]. Also, the GI50 in [7] is 4.75 µM; in experiment [8] it was 1.43 µM; in [9], 2.25 µM; in [10], 2.06 µM. The TGI was found to be 3.07 µM in experiment [1]; 6.12 µM in experiment [2]; 22.2 µM in experiment [3]; 8.51 µM in [4]; 3.05 µM in experiment [5]; 25.2 µM in experiment [6]. The TGI in experiment [7] came out at 18.7 µM; in [8], 2.86 µM; in experiment [9], 4.84 µM; in experiment [10] it was 13.6 µM.

For `COc1ccc(C2=N[C@@H](c3ccc(Cl)cc3)[C@@H](c3ccc(Cl)cc3)N2C(=O)N2CCNC(=O)C2)c(OC(C)C)c1`, the GI50 in experiment [1] is 14 µM and 15.7 µM and 12.8 µM; in experiment [2] it was 16.3 µM and 14.6 µM and 15.9 µM; in experiment [3], 12.6 µM and 14.9 µM and 15.4 µM; in experiment [4], 7540 nM and 3500 nM and 2740 nM; in experiment [5], 15 µM and 16.6 µM and 15.8 µM; in experiment [6] it was 10.3 µM and 12.1 µM and 12.9 µM. The GI50 is 5.92 µM and 3.77 µM and 2.63 µM in [7]; 14.9 µM and 14.4 µM and 14.2 µM in [8]; 15.9 µM in experiment [9]; 14.9 µM and 10.7 µM in [10]. In addition, the TGI in experiment [1] was 27.6 µM and 29.8 µM and 26 µM; in experiment [2], 30.9 µM and 29 µM and 30.6 µM; in [3], 25.7 µM and 29.2 µM and 29.9 µM; in experiment [4] it was 28.4 µM and > 36.2 µM and 17.2 µM; in experiment [5], 29.4 µM and 34.6 µM and 32.2 µM; in experiment [6] it was 24.1 µM and 25.2 µM and 27.3 µM. For the same compound, the TGI was 20.7 µM and 17.5 µM and 15.9 µM in experiment [7]; 31.4 µM and 28.2 µM and 29.1 µM in experiment [8]; 32 µM and 30 µM and 30.6 µM in experiment [9]; 31.9 µM and 23.9 µM and 24.8 µM in experiment [10].

In the case of `COc1ccc(-n2cc(-c3cc(OC)c(OC)c(OC)c3)[nH]c2=S)cc1Cl`, the GI50 in experiment [1] was 39.7 µM; in experiment [2], over 100 µM; in experiment [3], 10.3 µM; in experiment [4], over 100000 nM; in [5], 70.8 µM; in experiment [6], 37.3 µM. Moreover, the GI50 in [7] is 38.6 µM; in experiment [8] it was over 100 µM; in experiment [9], over 100 µM; in experiment [10], 14 µM. The TGI in [1] is over 100 µM; in [2] it was over 100 µM; in [3], 31.3 µM; in experiment [4], over 100 µM; in [5], over 100 µM; in [6], over 100 µM. The TGI is over 100 µM in experiment [7], over 100 µM in experiment [8], over 100 µM in [9] and 33 µM in experiment [10].

These data come from PubChem BioAssay (NCI).
